# Data taken from patent publication US20200181089A1, “4-ANILINO-QUINOLINE COMPOUNDS AS ANTI-CANCER AGENTS” (INSERM (INSTITUT NATIONAL DE LA SANTÉ ET DE LA RECHERCHE …, priority 2016, published 2020).
# Read-outs that look alike come from different tables or passages of the source.
# Key:
# Type in all cases: cell-based
# EZH2 transcription = experiment: Ability to decrease EZH2 mRNA level in A375 (dose-response, quantitative PCR); conditions: Homo sapiens, A-375, 96 h; A375 cells, incubated 4 days; read-out: IC50 (concentration necessary to obtain 50% of EZH2 transcription activity)
# Protocol: Typically, 30000-50000 cells were plated in six-well culture plates and incubated 24 h later with increasing concentration of NIK inhibitors or vehicle. Cells were incubated with the inhibitors for 4 days prior to harvesting for RNA extraction and PCR. Total RNA was isolated from cells using the RNAeasy minikit (Qiagen) according to the manufacturer's procedure. Reverse transcription was performed using the AMV reverse transcription system (Promega), and quantitative PCR was performed with Power Sybr green (Applied Biosystems, Life Technologies, Grand Island, N.Y.) following the manufacturer's instructions. The PCR was carried out on a Step One plus Real-Time PCR system (Applied Biosystems). All analyses were done in triplicate, and a melting curve analysis was performed to control for product quality and specificity. Expression levels were calculated using the comparative method of relative quantification, with SB34 as a normalizer. The data were analyzed for statistical significance using Student's t-test. The results are presented as the mean±SEM relative to the control. Primers were obtained from primer bank or primer depot (http://pga.mgh.harvard.edu/primerbank/, https://primerdepot.nci.nih.gov), and their specificity was verified using primer blast (http://www.ncbi.nlm.nih.gov/tools/primer-blast/).
# Here IC50 represents the concentration necessary to obtain 50% of EZH2 transcription activity.
# normal human melanocyte = experiment: Melanocyte viability assay (trypan blue exclusion); conditions: 96 h
# Protocol: (§1) Cell viability effects were evaluated by trypan blue exclusion assay. Briefly, cells were seeded into 12-well plate and grown in media supplemented with indicated compound at 10 μM for 96 h. Cells were washed with PBS and detached by trypsinization, collected and colored by trypan blue. Dead and living cells were counted and cell viability was calculated as follow: Viability (%)=100−[(dead cell number/total cells)*100].
# normal human fibroblast = experiment: Fibroblast viability assay (trypan blue exclusion); conditions: 96 h
# Protocol: as §1
# A375 cells = experiment: A375 cell proliferation assay (trypan blue exclusion); conditions: Homo sapiens, A-375, treated/untreated cell number; for activity at 1 µM: A375, 1 μM; for activity at 10 µM: A375, 10 μM
# Protocol: Cells were counted using a Malassez chamber. The average and standard deviation were calculated from triplicate experiments. Antiproliferative effects were evaluated by trypan blue exclusion assay. Briefly, cells were seeded into 12-well plate and grown in media supplemented with indicated compound at 1 or 10 μM for 48 h or 96 h. Cells were washed with PBS and detached by trypsinization, collected and colored by trypan blue. Dead and living cells were counted and proliferation was calculated as follow: Proliferation (%)=[(treated cell number/untreated cells number)*100].
# [1] = 48 h, read-out: Proliferation (%) At 1 μM - 48 H
# [2] = 96 h, read-out: Proliferation (%) At 1 μM - 96 H
# [3] = 48 h, read-out: Proliferation (%) At 10 μM - 48 H
# [4] = 96 h, read-out: Proliferation (%) At 10 μM - 96 H
SMILES,IC50 (EZH2 transcription) [µM],Viability (%) at 10 μM Melanocyte (normal human melanocyte) [%],Viability (%) at 10 μM Fibroblast (normal human fibroblast) [%],activity at 1 µM (A375 cells; [1]) [%],activity at 1 µM (A375 cells; [2]) [%],activity at 10 µM (A375 cells; [3]) [%],activity at 10 µM (A375 cells; [4]) [%]
"Cc1ccc(Nc2ccnc3cc(Cl)ccc23)cc1 [Compound 2, 4-((4-methylphenyl)amino)-7-chloroquinolinium chloride]",10,–,–,–,–,–,–
"COc1cccc(Nc2ccnc3cc(Cl)ccc23)c1 [Compound 6, 4-((3-methoxyphenyl)amino)-7-chloroquinolinium chloride]",15,–,–,–,–,–,–
"Oc1ccc(Nc2ccnc3cc(Cl)ccc23)cc1 [Compound 7, 4-((4-hydroxyphenyl)amino)-7-chloroquinolinium chloride]",–,99.1,97.7,84.6,91.1,95.2,79.4
"Oc1ccc(Nc2ccnc3cc(Cl)ccc23)cc1Cl [Compound 8, 4-((4-hydroxy-3-chlorophenyl)amino)-7-chloroquinolinium chloride]",15,98.0,98.6,81.3,74,82.1,67.5
"COc1ccc(Nc2ccnc3cc(N4CCOCC4)ccc23)cc1 [Compound 13, N-(4-methoxyphenyl)-7-morpholinoquinolin-4-amine]",15,–,–,–,–,–,–
"Oc1ccc(Nc2ccc3c(Nc4cc(F)cc(F)c4)ccnc3c2)cc1Cl [Compound 19, 2-chloro-4-((4-((3,5-difluorophenyl)amino)quinolin-7-yl)amino)phenol]",–,–,–,74.7,74.9,0.4,0
"COc1cccc(Nc2ccc3c(Nc4cc(F)cc(F)c4)ccnc3c2)c1 [Compound 26, N^4-(3,5-difluorophenyl)-N^7-(3-methoxyphenyl)quinolin-4,7-diamine]",–,–,–,54.9,9.9,0.4,0
"COc1ccc(Nc2cc(OC)nc3cc(Cl)ccc23)cc1 [Compound 27, 7-chloro-2-methoxy-N-(4-methoxyphenyl)quinolin-4-amine]",–,76.9,93.9,98.7,85.6,67.8,21.8
"COc1ccc(Nc2cc(N3CCOCC3)nc3cc(Cl)ccc23)cc1OC [Compound 28, 7-chloro-N-(3,4-dimethoxyphenyl)-2-morpholinoquinolin-4-amine]",–,99.1,95.7,98.4,87.8,92,82.8
"COc1ccc(Nc2cc(N3CCN(C)CC3)nc3cc(Cl)ccc23)cc1OC [Compound 29, 7-chloro-N-(3,4-dimethoxyphenyl)-2-(4-methylpiperazin-1-yl)quinolin-4-amine]",–,91.2,41.6,89.6,87.6,67.2,4.8
"COc1ccc(Nc2cc(N3CCOCC3)nc3cc(Cl)ccc23)cc1 [Compound 30, 7-chloro-N-(4-methoxyphenyl)-2-morpholinoquinolin-4-amine]",–,94.2,96.4,88,73.2,87.2,37
"COc1ccc(Nc2cc(N3CCN(C)CC3)nc3cc(Cl)ccc23)cc1 [Compound 31, 7-chloro-N-(4-methoxyphenyl)-2-(4-methylpiperazin-1-yl)quinolin-4-amine]",–,33.1,29.6,106,83.3,37.6,3.39
"COc1ccc(Nc2cc(OCCN3CCOCC3)nc3cc(Cl)ccc23)cc1OC [Compound 32, 7-chloro-N-(3,4-dimethoxyphenyl)-2-(2-morpholinoethoxy)quinolin-4-amine]",–,98.6,99.4,96,84.5,100,82.2
"COc1cc(Nc2ccc(OC)c(OC)c2)c2ccc(Cl)cc2n1 [Compound 33, 7-chloro-N-(3,4-dimethoxyphenyl)-2-methoxyquinolin-4-amine]",–,60.1,97.7,106,97.2,102,95.2
"FC(F)Oc1ccc(Nc2ccnc3cc(Cl)ccc23)cc1 [Compound 34, 7-chloro-N-(4-(difluoromethoxy)phenyl)quinolin-4-amine]",–,98.7,98.3,96,98.6,77.6,37.9
"COCCOc1cc(Nc2ccnc3cc(Cl)ccc23)ccc1OC [Compound 35, 7-chloro-N-(4-methoxy-3-(2-methoxyethoxy)phenyl)quinolin-4-amine]",–,99.1,99.5,104,85.3,84.7,79.9
"FC(F)(F)Oc1ccc(Nc2ccnc3ccc(Cl)cc23)cc1 [Compound 36, 6-chloro-N-(4-(trifluoromethoxy)phenyl)quinolin-4-amine]",–,73.4,92.1,105,97.7,49.7,9.89
"COc1ccc(Nc2ccnc3ccc(Cl)cc23)c(OC)c1 [Compound 37, 6-chloro-N-(2,4-dimethoxyphenyl)quinolin-4-amine]",–,98.7,94.6,84,87.4,80.5,53
"COc1ccc(Nc2ccnc3cc(Cl)ccc23)cc1OC [Compound 38, 7-chloro-N-(3,4-dimethoxyphenyl)quinolin-4-amine]",–,99.2,93.3,90.8,46.9,33.5,15.7
"COc1ccc(Nc2ccnc3cc(Cl)ccc23)c(OC)c1 [Compound 39, 7-chloro-N-(2,4-dimethoxyphenyl)quinolin-4-amine]",–,99.5,100.0,88.3,34.3,18.1,13.6
